Format in all cases: functional
The subject of assay [1] is Pseudomonas aeruginosa. As to the kind of experiment: Antibiofilm activity against Pseudomonas aeruginosa FSPA02 at 75 ug/ml by crystal violet staining based confocal microscopy analysis relative to control. As to conditions: dose 75 µg/ml.
Assay [2] concerns Serratia marcescens. As to the kind of experiment: Antibiofilm activity against Serratia marcescens FJ584421 assessed as inhibition of biofilm formation at 300 ug/ml relative to control. Further details: scale not given: the % may be the effect or the level left. As to conditions: dose 300 µg/ml.
Assay [3] has as its system Staphylococcus aureus. Description: Antibiofilm activity against Staphylococcus aureus MTCC 96 at 2 ug/ml incubated for 18 hrs by crystal violet staining based analysis relative to control. As to conditions: dose 2 µg/ml.
Assay [4] deals with Vibrio cholerae. As to the kind of experiment: Antibiofilm activity against Vibrio cholerae MTCC 3906 at 2 ug/ml incubated for 18 hrs by crystal violet staining based analysis relative to control. As to conditions: dose 2 µg/ml.
The subject of assay [5] is Bacillus subtilis. As to the kind of experiment: Antibiofilm activity against Bacillus subtilis MTCC 619 at 2 ug/ml incubated for 18 hrs by crystal violet staining based analysis relative to control. As to conditions: dose 2 µg/ml.
The subject of assay [6] is Streptococcus mutans. Description: Antibiofilm activity against Streptococcus mutans UA159 assessed as inhibition of biofilm formation at 3.0 ug/ml relative to control. Details: scale not given: the % may be the effect or the level left. As to conditions: dose 3 µg/ml.
In assay [7] the test system is Streptococcus mutans. Description: Antibiofilm activity against clinical isolates Streptococcus mutans assessed as inhibition of biofilm formation at 3.0 ug/ml relative to control. Details: scale not given: the % may be the effect or the level left. As to conditions: dose 3 µg/ml.
In assay [8] the test system is Pseudomonas aeruginosa. Description: Antibiofilm activity against Pseudomonas aeruginosa PA01 assessed as inhibition of biofilm formation at 25 ug/ml by microdilution plate method relative to control. Further details: scale not given: the % may be the effect or the level left. As to conditions: dose 25 µg/ml. In general terms: Broth dilution looks for growth in wells or tubes with falling amounts of substance.

For assay [9], the system named is Candida albicans. Description: Antibiofilm activity against Candida albicans BH assessed as inhibition of biofilm formation at 25 ug/ml by microdilution plate method relative to control. Details: scale not given: the % may be the effect or the level left. As to conditions: dose 25 µg/ml.
Assay [10] concerns Bacillus pumilus. As to the kind of experiment: Antibiofilm activity against Bacillus pumilus TiO1 assessed as inhibition of biofilm formation at 12.5 ug/ml by microdilution plate method relative to control. As to conditions: dose 12.5 µg/ml. Details: scale not given: the % may be the effect or the level left.
Assay [11] deals with Pseudomonas aeruginosa. As to the kind of experiment: Antibiofilm activity against Pseudomonas aeruginosa PA01 assessed as inhibition of biofilm formation at 100 ug/ml by microdilution plate method relative to control. As to conditions: dose 100 µg/ml. Further details: scale not given: the % may be the effect or the level left.
Assay [12] relates to Pseudomonas aeruginosa. As to the kind of experiment: Antibiofilm activity against Pseudomonas aeruginosa PAO1 at 500 ug/ml incubated for 24 hrs by crystal violet staining based analysis relative to control. As to conditions: dose 500 µg/ml.
Assay [13] deals with Staphylococcus aureus. As to the kind of experiment: Antibiofilm activity against Staphylococcus aureus at 100 ug/ml relative to control. As to conditions: dose 100 µg/ml.
The test system of assay [14] is Pseudomonas aeruginosa. Description: Antibiofilm activity against Pseudomonas aeruginosa at 100 ug/ml relative to control. As to conditions: dose 100 µg/ml.
Assay [15] deals with Pseudomonas aeruginosa. Description: Antibiofilm activity against Pseudomonas aeruginosa assessed as inhibition of biofilm formation at 90 ug/ml incubated for 24 hrs by crystal violet staining based analysis relative to control. Further details: scale not given: the % may be the effect or the level left. As to conditions: dose 90 µg/ml.
Assay [16] has as its system Staphylococcus epidermidis. As to the kind of experiment: Antibiofilm activity against Staphylococcus epidermidis RP62A at 256 ug/ml relative to control. As to conditions: dose 256 µg/ml.
Assay [17] has as its system Serratia marcescens. Description: Antibiofilm activity against Serratia marcescens at 30 ug/ml relative to control. As to conditions: dose 30 µg/ml.
The test system of assay [18] is Listeria monocytogenes. As to the kind of experiment: Antibiofilm activity against Listeria monocytogenes ATCC 19111 at 256 ug/ml relative to control. As to conditions: dose 256 µg/ml.
In assay [19] the test system is Escherichia coli. Description: Antibiofilm activity against Escherichia coli assessed as inhibition of biofilm formation.
Assay [20] has as its system Pseudomonas aeruginosa. As to the kind of experiment: Antibiofilm activity against Pseudomonas aeruginosa assessed as inhibition of biofilm formation at 100 to 200 ug/ml relative to control. Details: scale not given: the % may be the effect or the level left. As to conditions: dose 100-200 µg/ml; at 100 to 200 µg/mL.

Where a SMILES comes first, the peptide text is derived from it. The star is where a group is joined. Palmitoyl = CCCCCCCCCCCCCCCC(=O)*; X2 = CCCCCCCCC(O)CC(=O)O*

For the molecule `CCCCCCCCC(O)CC(=O)OC(=O)C(Cc1ccccc1)NC(=O)C(CC(C)C)NC(=O)C(CC(C)C)NC(=O)C(NC(=O)C(CC(=O)O)NC(=O)C(CC(C)C)NC(=O)C(N)CC(C)C)C(C)C` (stereo not given) (H-LLDVLLF-X2; configuration not given here), in [1], the Activity is on record as 90%.
Take `OCCc1ccc(O)cc1` [TYROSOL]: the Activity in [2] stood at 85.7%.
For the molecule `CCCCCCCCCCCCCCCC(=O)NC(CO)C(=O)NC(CC(=O)O)C(=O)NC(C(=O)NC(CO)C(=O)NC(CO)C(=O)O)C(C)C` (stereo not given) (Palmitoyl-SDVSS-OH; configuration not given here), the Activity in assay [3], in assay [4] and in [5] was 99% throughout.
Consider `C[C@H](CC[C@H](C)C(C)(C)C)[C@H]1CC[C@H]2C3C[C@H](OS(=O)(=O)[O-])[C@H]4C[C@H](OS(=O)(=O)[O-])[C@@H](OS(=O)(=O)[O-])C[C@]4(C)[C@H]3CC[C@]12C.[Na+].[Na+].[Na+]` (stereo not given in full), for which the Activity amounted to 99.5% in [6] and 85.2% in assay [7].
On to `CCCCCCCCCCCCCCCC(=O)OC[C@H]1O[C@H](O)[C@H](O)[C@@H](O)[C@@H]1O`, for which the Activity was more than 50% in assay [8], more than 50% in assay [9], more than 50% in assay [10] and more than 70% in assay [11].
As for `O=C1N[C@@H](Cc2ccc(O)cc2)C(=O)N2CCC[C@@H]12`, the Activity in assay [12] is reported as 48%.
`CCCC/C=C\CCCCCCCCCCCC=O`: the Activity in [13] stood at 78.973%; in assay [14], 82.657%.
Take `CC(C)CC(=O)NCCc1ccccc1`: in assay [15], the Activity is more than 40%.
With `CC(C)C[C@@H]1NC(=O)[C@@H]2CCCN2C1=O`, the Activity is listed as 82% in [16], 53.5% in assay [17] and 86.9% in assay [18].
`CCCCCCCCC1C=CC(=O)O1` (stereo not given): the MBIC in assay [19] is 50 µg/mL. The Activity in assay [20] was determined as 100%.

The record behind these values is ChEMBL document CHEMBL5352385, “Marine natural products and their synthetic analogs as promising antibiofilm agents for antibiotics discovery and development” (Eur J Med Chem, 2022).
